Results on three compounds are retold here after EP4480960A1, “A R[…] ALPHA-1 ANTITRYPSIN GLYCOPROTEIN” (AATEC Medical GmbH, priority 2023, dated 2024).

Where a name gives a salt, the structure may show the parent alone.

Experiment [1] concerns the target T1, human neutrophil elastase (Homo sapiens, UniProt P08246).
T1 construct: purchased Merck Millipore 324681
T1 sequence (P08246 30-247 limits assumed): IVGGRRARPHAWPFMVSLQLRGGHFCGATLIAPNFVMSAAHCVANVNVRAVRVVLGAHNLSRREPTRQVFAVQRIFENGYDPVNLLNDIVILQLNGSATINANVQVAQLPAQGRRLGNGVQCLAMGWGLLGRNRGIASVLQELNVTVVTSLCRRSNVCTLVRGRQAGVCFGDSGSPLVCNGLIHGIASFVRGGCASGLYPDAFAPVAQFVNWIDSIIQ
The experiment in a line: Neutrophil Elastase activity assay (fluorogenic MEOSUC-Ala-Ala-Pro-Val-AMC substrate). In kind it is biochemical. Also on record: key to Neutrophil Elastase IC50 / Neutrophil Elastase IC90: - = inactive.

Experiment [2] has as its target recombinant human TMPRSS2 enzyme (CusaBio #YP023924HU) (human) (UniProt O15393). The experiment in a line: cell-based or functional assay.
Setting [3] is: 15 min preincubation at 37 °C, read after 5 minutes.

Sequence of recombinant human TMPRSS2 enzyme (CusaBio #YP023924HU) (human) (O15393 106-492 limits assumed): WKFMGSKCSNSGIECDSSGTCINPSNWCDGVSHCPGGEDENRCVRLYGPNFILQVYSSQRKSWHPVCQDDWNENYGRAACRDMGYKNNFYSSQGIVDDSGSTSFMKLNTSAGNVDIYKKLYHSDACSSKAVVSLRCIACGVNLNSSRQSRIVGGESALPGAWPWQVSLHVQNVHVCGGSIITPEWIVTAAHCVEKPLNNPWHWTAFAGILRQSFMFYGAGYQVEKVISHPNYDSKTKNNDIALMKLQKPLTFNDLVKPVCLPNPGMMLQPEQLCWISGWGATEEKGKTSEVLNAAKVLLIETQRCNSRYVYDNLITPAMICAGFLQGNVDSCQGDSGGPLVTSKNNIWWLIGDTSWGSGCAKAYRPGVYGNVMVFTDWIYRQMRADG

`CN(C)C(=O)COC(=O)Cc1ccc(OC(=O)c2ccc(NC(=N)N)cc2)cc1` [Camostat mesylate]: in experiment [1] (setting [3]), the “Neutrophil Elastase IC50” value is reported as “-” and the “Neutrophil Elastase IC90” value is given as “-”. Moreover, in experiment [1] (result in words), the “inhibition of neutrophil elastase activity” value is recorded as “did not inhibit”.
As for “NIBSC Standard Alpha-1-Antitrypsin, plasma derived (1st International standard) (#05/162 NIBSC) (from UniProt P01009 25-418)”, the TMPRSS2 IC50 (fluorogenic substrate enzyme activity assay) in experiment [2] came to 51.8 nM.
“Prolastin (Grifols), human plasma-derived A1AT formulation (from UniProt P01009 25-418)”: in experiment [2], the TMPRSS2 IC50 (fluorogenic substrate enzyme activity assay) stood at 79 nM.
